Key:
[1] = system: HeLa cervical and MCF-7 breast adenocarcinomas; experiment: In vitro growth inhibition (MTT); format: cell-based, human; settings: HeLa and MCF-7
Excerpt: This finding led to an exploration of the SAR analyses by synthesizing the first generation compounds 3 containing diverse substituents at different positions in the 2-aryl-2-(3-indolyl)acetohydroxamate skeleton and testing this series for in vitro growth inhibition using the MTT colorimetric assay against two cell lines, human HeLa cervical and MCF-7 breast adenocarcinomas (Table 1). It emerged from these experiments that the substitution on the benzene ring of the indole moiety (R^2≠H) was not tolerated (e.g., 3abfa and 3acfa), whereas the nitrogen could be derivatized (R^1≠H) with only a small activity drop (e.g., 3bafa vs 3aafa).
(§1) Antiproliferative properties of the synthesized compounds were evaluated by the MTT assay. All compounds were dissolved in DMSO at a concentration of either 100 mM or 50 mM prior to cell treatment. The cells were trypsinized and seeded at 4×10^3 cells per well into 96-well plates. The cells were grown for 24 h, treated with compounds at concentrations ranging from 0.001 to 100 μM and incubated for 48 h in 200 μL media. 20 μL of MTT reagent in serum free medium (5 mg/mL) was added to each well and incubated further for 2 h. Media was removed and the resulting formazan crystals were re-solubilized in 200 μL of DMSO. A490 was measured using a Molecular Devices Thermomax plate reader. The experiments were performed in quadruplicate and repeated at least twice for each compound per cell line. Cells treated with 0.1% DMSO were used as a negative control; 1 μM phenyl arsine oxide (PAO) was used as a positive control.

[2] = system: A549 non-small-cell-lung cancer cells; experiment: MTT antiproliferative assay, A549; format: cell-based, human
Protocol: (§2) As part of the ongoing efforts aimed at identification of compounds active against cancer cells displaying resistance to proapoptotic agents, the selected 2-aryl-2-(3-indolyl)-acetohydroxamates were evaluated for in vitro growth inhibition against a panel of additional cancer cell lines including those resistant to various proapoptotic stimuli, such as human T98G and U87 glioblastoma and human A549 non-small-cell-lung cancer (NSCLC), as well as an apoptosis-sensitive tumor model, such as human Hs683 anaplastic oligodendroglioma, used as a reference. The data reveal that for the most part these compounds retain the single-digit antiproliferatve GI50 values in this challenging cancer cell panel.
(§3) Human cancer cell lines were obtained from the American Type Culture Collection (ATCC, Manassas, Va., USA), the European Collection of Cell Culture (ECACC, Salisbury, UK) and the Deutsche Sammlung von Mikroorganismen and Zellkulturen (DSMZ, Braunschweig, Germany). Human cervical adenocarcinoma HeLa cells were cultured in DMEM supplemented with 10% fetal bovine serum (FBS). Human mammary carcinoma MCF-7 cells were cultured in RPMI supplemented with 10% FBS. The U87 cells (ATCC HTB-14) were cultured in DMEM culture medium, while the A549 cells (DSMZ ACC107) were cultured in RPMI culture medium supplemented with 10% heat-inactivated FBS. The glioblastoma multiforme Hs683 (ATCC HTB-138) and the T98G (ATCC CRL-1690) cell lines were cultivated in DMEM supplemented with 10% FBS. The Human uterine sarcoma MES-SA and MES-SA/Dx5 cells were cultured in RPMI-1640 medium supplemented with 10% FBS with MES SA/Dx5 maintained in the presence of 500 nM Doxorubicin (Sigma). SKMEL-28 cells (ATCC HTB72) and U373 glioblastoma cells (ECACC 08061901) were cultured in RPMI culture medium supplemented with 10% heat-inactivated FBS. Cell culture media were supplemented with 4 mM glutamine (Lonza code BE17-605E), 100 μg/mL gentamicin (Lonza code 17-5182), and penicillin-streptomycin (200 units/ml and 200 μg/ml) (Lonza code 17-602E). Neurosphere culture GBM 031810 was established using known methods and maintained in Neurobasal medium (Invitrogen Carlsbad, Calif.) with B27 supplement (20 ul/ml; Invitrogen), Glutamax (10 ul/ml; Invitrogen), fibroblast growth factor-2 (20 ng/ml; Peprotech, Rocky Hill, N.J., USA), epidermal growth factor (20 ng/ml; Peprotech), heparin (32 IE/ml; Sigma Aldrich, St. Louis, Mo.), and penicillin-streptomycin (1×, Invitrogen). Growth factors and heparin were renewed twice weekly. All cell lines were cultured in T25 flasks, maintained and grown at 37° C., 95% humidity, 5% CO2.
as §1

T98G glioblastoma cells = experiment: MTT antiproliferative assay, T98G; format: cell-based; settings: Homo sapiens, 48 h treatment, ± SD, read-out: GI50 in vitro, T98G
Protocol: as §2, §3, §1

SKMEL-28 melanoma cells = experiment: Quantitative videomicroscopy, SKMEL-28; format: cell-based, human; settings: 25 μM
Protocol: To obtain insight into the effectiveness of 2-aryl-2-(3-indolyl)acetohydroxamates against apoptosis-resistant cancers, computer-assisted phase-contrast microscopy (quantitative videomicroscopy) was employed to observe the phenotypic morphological changes in cancer cells as they are treated with these compounds. […] Based on the phase contrast pictures obtained by means of quantitative videomicroscopy, a global growth ratio (GGR) was calculated, which corresponds to the ratio of the mean number of cells present in a given image captured in the experiment (in this case after 24, 48 and 72 h) to the number of cells present in the first image (at 0 h). The ratio obtained in the 3aafa-treated experiment was then divided by the ratio obtained in the control. […] Thus, the GGR calculations are consistent with the MTT colorimetric data and indicate that it is the cytostatic properties associated with the hydroxamates that are responsible for their antiproliferative effects against apoptosis-resistant cancer cells, at least at relevant concentrations (slightly above the GI50 values).
Human cancer cell lines were obtained from the American Type Culture Collection (ATCC, Manassas, Va., USA), the European Collection of Cell Culture (ECACC, Salisbury, UK) and the Deutsche Sammlung von Mikroorganismen and Zellkulturen (DSMZ, Braunschweig, Germany). […]

[3] = system: MES-SA uterine sarcoma cells; experiment: MTT antiproliferative assay, MES-SA; format: cell-based; settings: Homo sapiens, 48 h treatment, ± SD, read-out: GI50 in vitro, MES-SA
Protocol: Compared with the intrinsic drug resistance, as described above for such cancers as glioblastoma and melanoma, a large variety of tumors can also develop resistance to anticancer drugs resulting in MDR as explained previously. To assess whether the hydroxamates can overcome this resistance mechanism, selected hydroxamates were tested against MDR cells (Table 4). The MDR uterine sarcoma cell line MES-SA/Dx5 was utilized for this experiment. This cell line was established from the parent uterine sarcoma MES-SA, grown in the presence of increasing concentrations of doxorubicin and known to be resistant to a number of P-gp substrates. […] In contrast, there was only a small variation in the sensitivities of the two cell lines towards the hydroxamates indicating their potential to overcome clinical multi-drug resistance.
as §3, §1

U87 glioma cells = experiment: Redifferentiation of U87 cells to an astrocytic phenotype; format: cell-based, human; settings: GI50 concentration (7 μM, 33-day treatment, FIG. 5C)
Protocol: Although such redifferentiation processes are known, there are only a few small molecule agents reported to induce these epigenetic transformations.
U87 cells were plated at a density of 5×10^4 cells per well in 24-well plate in DMEM supplemented with 10% FBS. The following day, the cells in each well were re-fed with 1 mL of fresh DMEM/10% FBS, and treated with 3aafa to a final concentration between 15 and 5 μM. Cells were placed into the CO2 incubator and media was not replaced for the duration of the experiment.

SMILES: O=C(NO)C(c1ccccc1)c1c(-c2ccc3ccccc3c2)[nH]c2ccccc12 (centres unmarked) [Compound 3aafa]
- antiproliferative potency (GI50) [1]: single-digit micromolar
- activity against cell populations resistant to proapoptotic agents, A549 ([2]; FIG. 3, increasing concentration): potent growth inhibitory properties against most of the cells
- GI50 ([2]; Homo sapiens, A549, 48 h treatment, MTT, ± SD, read-out: GI50 in vitro, A549): 2800 ± 400 nM
- GI50 (T98G glioblastoma cells): 36400 ± 1900 nM
- phenotypic effect, SKMEL-28 (SKMEL-28 melanoma cells; slightly exceeding GI50, FIG. 4): inhibits cancer cell proliferation without inducing cell death
- global growth ratio (GGR), SKMEL-28 (SKMEL-28 melanoma cells; 72 h observation, treated/control): ca. 0.3
- GI50 [3]: 2000 ± 200 nM
- phenotypic morphological changes of U87 cells (U87 glioma cells): ceased to replicate and appeared to undergo redifferentiation to a non-malignant state resembling an astrocytic phenotype
